Counter-ions that a name gives are not always drawn.
SMILES	melting point
c1ccc(C(c2ccccc2)N2CCN(CCCNc3ccc4ncnn4n3)CC2)cc1 [Example 5A, 6-[3-[4-(Diphenylmethyl)-1-piperazinyl]propylamino][1,2,4]triazolo[1,5-b]pyridazine]	139 to 140 °C
CC(C)(C(=O)O)c1nc2ccc(NCCCN3CCN(C(c4ccccc4)c4ccccc4)CC3)nn2c1Cl [Example 85A, 2-[3-Chloro-6-[3-[4-(diphenylmethyl)-1-piperazinyl]propylamino]imidazo[1,2-b]pyridazin-2-yl]-2-methylpropionic Acid]	184 to 186 °C
CC(C)(C(=O)O)c1nc2ccc(OCCCN3CCN(C(c4ccccc4)c4ccccc4)CC3)nn2c1Cl [Example 88A, 2-[3-Chloro-6-[3-[4-(diphenylmethyl)-1-piperazinyl]propoxy]imidazo[1,2-b]pyridazin-2-yl]-2-methylpropionic Acid]	118 to 121 °C
O=C(O)c1nc2ccc(OCCCN3CCC(OC(c4ccccc4)c4ccccc4)CC3)nn2n1 [Example 123A, [6-[3-[4-(Diphenylmethoxy)piperidino]propoxy][1,2,4]triazolo[1,5-b]pyridazin-2-yl]carboxylic Acid]	173 to 177 °C
OC(CNc1ccc2ncnn2n1)CN1CCC(OC(c2ccccc2)c2ccccc2)CC1 (centres unmarked) [Example 115A, 1-[4-(Diphenylmethoxy)piperidino]-3-[([1,2,4]triazolo[1,5-b]pyridazin-6-yl)amino]-2-propanol]	82 to 87 °C
CC(C)(C(=O)O)c1cn2nc(NCCCN3CCC(OC(c4ccccc4)c4ccccc4)CC3)ccc2n1 [Example 43A, 2-[6-[3-[4-(Diphenylmethoxy)piperidino]propylamino]imidazo[1,2-b]pyridazin-2-yl]-2-methylpropionic Acid]	205 to 206 °C
c1ccc(C(c2ccccc2)N2CCN(CCCCCCNc3ccc4ncnn4n3)CC2)cc1 [Example 37A, 6-[6-[4-(Diphenylmethyl)-1-piperazinyl]hexylamino][1,2,4]triazolo[1,5-b]pyridazine]	130 to 132 °C
Cc1cc2ncnn2nc1OCCOCCN1CCC(OC(c2ccccc2)c2ccccc2)CC1 [Example 53A, 6-[2-[2-[4-(Diphenylmethoxy)piperidino]ethoxy]ethoxy]-7-methyl[1,2,4]triazolo[1,5-b]pyridazine]	80 to 82 °C
c1ccc(C(OC2CCN(c3ccc4ncnn4n3)CC2)c2ccccc2)cc1 [Example 11A, 6-[4-(Diphenylmethoxy)piperidino][1,2,4]triazolo[1,5-b]pyridazine]	137 to 139 °C
CC(C)(C)c1cc2ncnn2nc1OCCN1CCC(OC(c2ccccc2)c2ccccc2)CC1 [Example 15A, 7-t-Butyl-6-[2-[4-(Diphenylmethoxy)piperidino]ethoxy][1,2,4]triazolo[1,5-b]pyridazine]	133 to 135 °C
O=C(O)CNC(=O)c1cn2nc(NCCCN3CCC(OC(c4ccccc4)c4ccccc4)CC3)ccc2n1 [Example 72A, N-[6-[3-[4-(Diphenylmethoxy)piperidino]propylamino]imidazo[1,2-b]pyridazine-2-carbonyl]glycine]	171 °C
c1ccc(-c2nc3ccc(NCCCN4CCC(OC(c5ccccc5)c5ccccc5)CC4)nn3n2)cc1 [Example 32A, 6-[3-[4-(Diphenylmethoxy)piperidino]propylamino]-2-phenyl[1,2,4]triazolo[1,5-b]pyridazine]	170 to 172 °C
O=C(O)c1cc2ncnn2nc1NCCCN1CCC(OC(c2ccccc2)c2ccccc2)CC1 [Example 119A, [6-[3-[4-(Diphenylmethoxy)piperidino]propylamino][1,2,4]triazolo[1,5-b]pyridazin-7-yl]carboxylic Acid]	207 to 209 °C
Cc1cc2ncnn2nc1OCCCCCCN1CCN(C(c2ccccc2)c2ccccc2)CC1 (as salt: hydrochloride) [Example 51A, 6-[6-[4-(Diphenylmethyl)-1-piperazinyl]hexyloxy]-7-methyl[1,2,4]triazolo[1,5-b]pyridazine Dihydrochloride]	170 to 172 °C
CCOC(=O)C(C)(C)c1cn2nc(NCCCN3CCC(NC(c4ccccc4)c4ccccc4)CC3)ccc2n1 [Example 108A, Ethyl 2-[6-[3-[4-(Diphenylmethylamino)piperidino]propylamino]imidazo[1,2-b]pyridazin-2-yl]-2-methylpropionate]	115 to 117 °C
O=C(OCCCOc1ccc2ncnn2n1)C1CC(OC(c2ccccc2)c2ccccc2)CCN1 (centres unmarked) [Example 27A, 6-[3-[4-(Diphenylmethoxy)piperidino-carbonyloxy]propoxy][1,2,4]triazolo[1,5-b]pyridazine]	119 to 120 °C
COC(=O)c1nc2ccc(NCCCN3CCC(OC(c4ccccc4)c4ccccc4)CC3)nn2n1 [Example 36A, Methyl 6-[3-[4-(Diphenylmethoxy)piperidino]propylamino][1,2,4]triazolo[1,5-b]pyridazine-2-carboxylate]	93 to 96 °C
CC(C)c1cc2ncnn2nc1OCCOCCN1CCN(C(c2ccccc2)c2ccccc2)CC1 [Example 61A, 6-[2-[2-[4-(Diphenylmethyl)-1-piperazinyl]ethoxy]ethoxy]-7-isopropyl[1,2,4]triazolo[1,5-b]pyridazine]	119 to 120 °C

SMILES	melting point
O=C(O)CNC(=O)c1nc2ccc(NCCCN3CCC(OC(c4ccccc4)c4ccccc4)CC3)nn2n1 [Example 125A, N-[6-[3-[4-(Diphenylmethoxy)piperidino]propylamino][1,2,4]triazolo[1,5-b]pyridazine-2-carbonyl]glycine]	256 to 258 °C
OC(COc1ccc2ncnn2n1)CN1CCC(OC(c2ccccc2)c2ccccc2)CC1 (centres unmarked) [Example 16A, 1-[4-(Diphenylmethoxy)piperidino]-3-([1,2,4]triazolo[1,5-b]pyridazin-6-yloxy)-2-propanol]	133 to 135 °C
COC(=O)c1cc2ncnn2nc1NCCCN1CCC(OC(c2ccccc2)c2ccccc2)CC1 [Example 118A, Methyl[6-[3-[4-(Diphenylmethoxy)piperidino]propylamino][1,2,4]triazolo[1,5-b]pyridazin-7-yl]carboxylate]	120 to 122 °C
CC(C)(C(=O)O)c1cn2nc(CCCCN3CCN(C(c4ccccc4)c4ccccc4)CC3)ccc2n1 [Example 95A, 2-[6-[4-[4-(Diphenylmethyl)-1-piperazinyl]butyl]imidazo[1,2-b]pyridazin-2-yl]-2-methylpropionic Acid]	108 to 110 °C
O=C(CN1CCC(OC(c2ccccc2)c2ccccc2)CC1)Nc1ccc2ncnn2n1 [Example 23A, 2-[4-(Diphenylmethoxy)piperidino]-N-([1,2,4]triazolo[1,5-b]pyridazin-6-yl)acetamide]	158 to 160 °C
c1ccc(C(OC2CCN(CCCCCNc3ccc4ncnn4n3)CC2)c2ccccc2)cc1 [Example 114A, 6-[5-[4-(Diphenylmethoxy)piperidino]pentylamino][1,2,4]triazolo[1,5-b]pyridazine]	96 to 98 °C
CC(C)OC(=O)c1nc2ccc(OCCCN3CCC(OC(c4ccccc4)c4ccccc4)CC3)nn2n1 [Example 122A, Isopropyl[6-[3-[4-(Diphenylmethoxy)piperidino]propoxy][1,2,4]triazolo[1,5-b]pyridazin-2-yl]carboxylate]	126 to 127 °C
CCOC(=O)CNC(=O)c1nc2ccc(NCCCN3CCC(OC(c4ccccc4)c4ccccc4)CC3)nn2c1Cl [Example 111A, N-[3-Chloro-6-[3-[4-(diphenylmethoxy)piperidino]propylamino]imidazo[1,2-b]pyridazine-2-carbonyl]glycine Ethyl Ester]	178 to 180 °C
O=C(O)C1(c2cn3nc(NCCCN4CCC(OC(c5ccccc5)c5ccccc5)CC4)ccc3n2)CC1 [Example 100A, 1-[6-[3-[4-(Diphenylmethoxy)piperidino]propylamino]imidazo[1,2-b]pyridazin-2-yl]cyclopropanecarboxylic Acid]	115 to 117 °C
CC(C)(C)OC(=O)c1nc2ccc(NCCCN3CCC(OC(c4ccccc4)c4ccccc4)CC3)nn2n1 [Example 116A, tert-Butyl[6-[3-[4-(Diphenylmethoxy)piperidino]propylamino][1,2,4]triazolo[1,5-b]pyridazin-2-yl]carboxylate]	133 to 135 °C
c1ccc(C(OC2CCN(CCNc3ccc4ncnn4n3)CC2)c2ccccc2)cc1 [Example 13A, 6-[2-[4-(Diphenylmethoxy)piperidino]ethylamino][1,2,4]triazolo[1,5-b]pyridazine]	152 to 154 °C
O=C(O)c1nc2ccc(NCCCN3CCC(OC(c4ccccc4)c4ccccc4)CC3)nn2n1 [Example 117A, [6-[3-[4-(Diphenylmethoxy)piperidino]propylamino][1,2,4]triazolo[1,5-b]pyridazin-2-yl]carboxylic Acid]	135 to 138 °C
CC(C)c1cc2ncnn2nc1SCCCN1CCN(C(c2ccccc2)c2ccccc2)CC1 [Example 9A, 6-[3-[4-(Diphenylmethyl)-1-piperazinyl]propylthio]-7-isopropyl[1,2,4]triazolo[1,5-b]pyridazine]	137 to 139 °C
O=C(OCCOc1ccc2ncnn2n1)N1CCN(C(c2ccccc2)c2ccccc2)CC1 [Example 26A, 6-[2-[4-(Diphenylmethyl)-1-piperazinyl-carbonyloxy]ethoxy][1,2,4]triazolo[1,5-b]pyridazine]	157 to 159 °C
O=C(CN1CCN(C(c2ccccc2)c2ccccc2)CC1)Nc1ccc2ncnn2n1 [Example 24A, 2-[4-(Diphenylmethyl)-1-piperazinyl]-N-([1,2,4]triazolo[1,5-b]pyridazin-6-yl)acetamide]	203 to 204 °C
c1ccc(C(OC2CCN(CCCCNc3ccc4ncnn4n3)CC2)c2ccccc2)cc1 [Example 12A, 6-[4-[4-(Diphenylmethoxy)piperidino]butylamino][1,2,4]triazolo[1,5-b]pyridazine]	102 to 104 °C
c1ccc(C(OC2CCN(CCCNc3ccc4ncnn4n3)CC2)c2ccccc2)cc1 [Example 6A, 6-[3-[4-(Diphenylmethoxy)piperidino]propylamino][1,2,4]triazolo[1,5-b]pyridazine]	136 to 138 °C
